Reference: article PMC5218480 (PLoS ONE, 2017)

Tested on: MV-4-11 cells
Experiment: Gene expression microarray analysis (Affymetrix PrimeView) and GSEA
Format: cell-based, human
Parameters: RFU PODN (11730768_x_at) / Fold change /veh PODN (11730768_x_at) / RFU LINC00158 (11744669_a_at) / Fold change /veh LINC00158 (11744669_a_at) / RFU DUSP10 (11751237_a_at) / Fold change /veh DUSP10 (11751237_a_at) / RFU ID3 (11757404_x_at) / Fold change /veh ID3 (11757404_x_at) / RFU PLEKHG5 (11737974_s_at) / Fold change /veh PLEKHG5 (11737974_s_at) / RFU LRRC4B (11730491_at) / Fold change /veh LRRC4B (11730491_at) / RFU GIMAP4 (11747438_a_at) / Fold change /veh GIMAP4 (11747438_a_at) / RFU KRT8 (11758183_x_at) / Fold change /veh KRT8 (11758183_x_at) / RFU CNN1 (11734310_a_at) / Fold change /veh CNN1 (11734310_a_at) / RFU VPS37D (11726825_at) / Fold change /veh VPS37D (11726825_at) / RFU C10orf10 (11716522_x_at) / Fold change /veh C10orf10 (11716522_x_at) / RFU KIR2DL2 /// KIR2DL4 /// KIR2DL5A /// KIR2DL5B /// KIR2DS1 /// KIR2DS2 /// KIR2DS3 /// KIR2DS4 /// KIR3DL3 /// KIR3DL3 /// KIR3DS1 (11738374_at) / Fold change /veh KIR2DL2 /// KIR2DL4 /// KIR2DL5A /// KIR2DL5B /// KIR2DS1 /// KIR2DS2 /// KIR2DS3 /// KIR2DS4 /// KIR3DL3 /// KIR3DL3 /// KIR3DS1 (11738374_at) / RFU C1QL1 (11718748_at) / Fold change /veh C1QL1 (11718748_at) / RFU TMPRSS4 (11747572_a_at) / Fold change /veh TMPRSS4 (11747572_a_at) / RFU HAMP (11756126_x_at) / Fold change /veh HAMP (11756126_x_at) / RFU RNFT2 (11725882_a_at) / Fold change /veh RNFT2 (11725882_a_at) / RFU NR4A2 (11747474_a_at) / Fold change /veh NR4A2 (11747474_a_at) / RFU ABCC12 (11746883_a_at) / Fold change /veh ABCC12 (11746883_a_at) / RFU TMEM136 (11760407_x_at) / Fold change /veh TMEM136 (11760407_x_at) / RFU CLDN22 /// WWC2 (11732394_at) / Fold change /veh CLDN22 /// WWC2 (11732394_at) / RFU HLA-DPB1 (11760878_x_at) / Fold change /veh HLA-DPB1 (11760878_x_at) / RFU SPINT1 (11716480_a_at) / Fold change /veh SPINT1 (11716480_a_at) / RFU GAP43 (11754022_s_at) / Fold change /veh GAP43 (11754022_s_at) / RFU A4GNT (11735810_at) / Fold change /veh A4GNT (11735810_at) / RFU PRB3 (11715151_x_at) / Fold change /veh PRB3 (11715151_x_at) / RFU TUBB4B (11761932_at) / Fold change /veh TUBB4B (11761932_at) / RFU CAPN14 (11732068_a_at) / Fold change /veh CAPN14 (11732068_a_at) / RFU TMCC2 (11721928_a_at) / Fold change /veh TMCC2 (11721928_a_at) / RFU IRGQ (11745062_a_at) / Fold change /veh IRGQ (11745062_a_at) / RFU FAM174B (11720279_a_at) / Fold change /veh FAM174B (11720279_a_at) / RFU TMPRSS4 (11748680_a_at) / Fold change /veh TMPRSS4 (11748680_a_at) / RFU FAM212B (11763350_a_at) / Fold change /veh FAM212B (11763350_a_at) / RFU PLEKHG5 (11743358_a_at) / Fold change /veh PLEKHG5 (11743358_a_at) / RFU ZSCAN30 (11745921_a_at) / Fold change /veh ZSCAN30 (11745921_a_at) / RFU CMKLR1 (11741424_a_at) / Fold change /veh CMKLR1 (11741424_a_at) / RFU LOC101060620 /// MAPK8IP1 (11723275_at) / Fold change /veh LOC101060620 /// MAPK8IP1 (11723275_at) / RFU SPTSSB (11747773_x_at) / Fold change /veh SPTSSB (11747773_x_at) / RFU PRSS12 (11739890_at) / Fold change /veh PRSS12 (11739890_at) / RFU BIN1 (11741810_x_at) / Fold change /veh BIN1 (11741810_x_at) / RFU WNT11 (11732464_a_at) / Fold change /veh WNT11 (11732464_a_at) / RFU C10orf10 (11716521_a_at) / Fold change /veh C10orf10 (11716521_a_at) / RFU C5orf56 (11738089_at) / Fold change /veh C5orf56 (11738089_at) / RFU CYB561 (11721691_x_at) / Fold change /veh CYB561 (11721691_x_at) / RFU ANKRD19P (11752326_a_at) / Fold change /veh ANKRD19P (11752326_a_at) / RFU OR2T12 /// OR2T33 /// OR2T8 (11738714_s_at) / Fold change /veh OR2T12 /// OR2T33 /// OR2T8 (11738714_s_at) / RFU VCAN (11748164_a_at) / Fold change /veh VCAN (11748164_a_at) / RFU JSRP1 (11732532_at) / Fold change /veh JSRP1 (11732532_at) / RFU KRTAP10-11 (11738290_x_at) / Fold change /veh KRTAP10-11 (11738290_x_at) / RFU MYO3A (11730013_a_at) / Fold change /veh MYO3A (11730013_a_at) / RFU EBF3 (11725865_a_at) / Fold change /veh EBF3 (11725865_a_at) / RFU CAMK2N1 (11719241_x_at) / Fold change /veh CAMK2N1 (11719241_x_at) / RFU C5orf56 (11738088_a_at) / Fold change /veh C5orf56 (11738088_a_at) / RFU OLFML3 (11715873_a_at) / Fold change /veh OLFML3 (11715873_a_at) / RFU LOC100653217 /// NTM (11731650_a_at) / Fold change /veh LOC100653217 /// NTM (11731650_a_at) / RFU MAPK11 (11762145_a_at) / Fold change /veh MAPK11 (11762145_a_at) / RFU FIZ1 (11724087_x_at) / Fold change /veh FIZ1 (11724087_x_at) / RFU OASL (11726364_x_at) / Fold change /veh OASL (11726364_x_at) / RFU SOX15 (11748057_x_at) / Fold change /veh SOX15 (11748057_x_at) / RFU CD79A (11719716_a_at) / Fold change /veh CD79A (11719716_a_at) / RFU HIST1H1D (11736915_at) / Fold change /veh HIST1H1D (11736915_at) / RFU CASKIN2 (11723855_a_at) / Fold change /veh CASKIN2 (11723855_a_at) / RFU LOC730098 (11760151_x_at) / Fold change /veh LOC730098 (11760151_x_at) / RFU OR4N2 (11742367_at) / Fold change /veh OR4N2 (11742367_at) / RFU PRRT2 (11749266_a_at) / Fold change /veh PRRT2 (11749266_a_at) / RFU SNX32 (11753110_a_at) / Fold change /veh SNX32 (11753110_a_at) / RFU CDHR5 (11726645_a_at) / Fold change /veh CDHR5 (11726645_a_at) / RFU RCAN1 (11760418_a_at) / Fold change /veh RCAN1 (11760418_a_at) / RFU FAM167A (11723789_a_at) / Fold change /veh FAM167A (11723789_a_at) / RFU FAM26E (11764081_at) / Fold change /veh FAM26E (11764081_at) / RFU ISYNA1 (11749810_s_at) / Fold change /veh ISYNA1 (11749810_s_at) / RFU ACY1 (11761880_at) / Fold change /veh ACY1 (11761880_at) / RFU 11764098_at / Fold change /veh 11764098_at / RFU SAMD14 (11745864_x_at) / Fold change /veh SAMD14 (11745864_x_at) / RFU NPB (11741838_a_at) / Fold change /veh NPB (11741838_a_at) / RFU TMPRSS6 (11731388_a_at) / Fold change /veh TMPRSS6 (11731388_a_at) / RFU KRTAP10-2 (11738614_at) / Fold change /veh KRTAP10-2 (11738614_at) / RFU ARHGAP8 /// PRR5-ARHGAP8 (11727945_x_at) / Fold change /veh ARHGAP8 /// PRR5-ARHGAP8 (11727945_x_at) / RFU KRTAP5-7 /// NADSYN1 (11734609_at) / Fold change /veh KRTAP5-7 /// NADSYN1 (11734609_at) / RFU RASL12 (11751679_a_at) / Fold change /veh RASL12 (11751679_a_at) / RFU CDKN2B (11736163_a_at) / Fold change /veh CDKN2B (11736163_a_at) / RFU PRF1 (11729649_at) / Fold change /veh PRF1 (11729649_at) / RFU, ZNF638 /// ZNF638-IT1 / Fold change vs veh, ZNF638 /// ZNF638-IT1 / RFU, PANK3 / Fold change vs veh, PANK3 / RFU, SH3YL1 / Fold change vs veh, SH3YL1 / RFU, ZEB2 / Fold change vs veh, ZEB2 / RFU, NRIP1 / Fold change vs veh, NRIP1 / RFU, PTTG1IP / Fold change vs veh, PTTG1IP / RFU, CAPN2 / Fold change vs veh, CAPN2 / RFU, MED14 / Fold change vs veh, MED14 / RFU, SNORA58 / Fold change vs veh, SNORA58 / RFU, C1orf63 / Fold change vs veh, C1orf63 / RFU, LRRFIP1 / Fold change vs veh, LRRFIP1 / RFU, NDUFAF7 / Fold change vs veh, NDUFAF7 / RFU, SLC12A2 / Fold change vs veh, SLC12A2 / RFU, IBTK / Fold change vs veh, IBTK / RFU, ESF1 / Fold change vs veh, ESF1 / Fold change vs veh, TMEM50B / RFU, TAOK1 / Fold change vs veh, TAOK1 / RFU, ACBD3 / Fold change vs veh, ACBD3 / RFU, TMA16 / Fold change vs veh, TMA16 / RFU, RWDD3 / Fold change vs veh, RWDD3 / RFU, BCAT1 / Fold change vs veh, BCAT1 / RFU, EDEM3 / Fold change vs veh, EDEM3 / RFU, TMEM33 / Fold change vs veh, TMEM33 / RFU, WDR75 / Fold change vs veh, WDR75 / RFU, AHCTF1 / Fold change vs veh, AHCTF1 / RFU, TFRC / Fold change vs veh, TFRC / RFU, ZDHHC17 / Fold change vs veh, ZDHHC17 / RFU, NOM1 / Fold change vs veh, NOM1 / RFU, ARL8B / Fold change vs veh, ARL8B / RFU, ZBTB11 / Fold change vs veh, ZBTB11 / RFU, TAMM41 / Fold change vs veh, TAMM41 / RFU, KIAA1704 /// LOC100996395 / Fold change vs veh, KIAA1704 /// LOC100996395 / RFU, ING1 / Fold change vs veh, ING1 / RFU, TRMT61B / Fold change vs veh, TRMT61B / RFU, FUBP3 / Fold change vs veh, FUBP3 / RFU, TP53 / Fold change vs veh, TP53 / RFU, TNKS2 / Fold change vs veh, TNKS2 / RFU, ZFP14 / Fold change vs veh, ZFP14 / RFU, ACTR2 / Fold change vs veh, ACTR2 / RFU, PPP3R1 / Fold change vs veh, PPP3R1 / RFU, PIK3R1 / Fold change vs veh, PIK3R1 / RFU, HNRNPA1 / Fold change vs veh, HNRNPA1 / RFU, RNF170 / Fold change vs veh, RNF170 / RFU, ZNF28 / Fold change vs veh, ZNF28 / RFU, RNGTT / Fold change vs veh, RNGTT / RFU, OGT / Fold change vs veh, OGT / RFU, BRD1 / Fold change vs veh, BRD1 / RFU, MARS / Fold change vs veh, MARS / RFU, ZNF655 / Fold change vs veh, ZNF655 / RFU, FAHD1 / Fold change vs veh, FAHD1 / RFU, BDP1 / Fold change vs veh, BDP1 / RFU, LRRCC1 / Fold change vs veh, LRRCC1 / RFU, ARID1A / Fold change vs veh, ARID1A / RFU, ZNF146 / Fold change vs veh, ZNF146 / RFU, ZNF330 / Fold change vs veh, ZNF330 / RFU, GPN3 / Fold change vs veh, GPN3 / RFU, C9orf123 / Fold change vs veh, C9orf123 / RFU, N4BP2L2 / Fold change vs veh, N4BP2L2 / RFU, ARFIP1 / Fold change vs veh, ARFIP1 / RFU, FAM179B / Fold change vs veh, FAM179B / RFU, BCL10 / Fold change vs veh, BCL10 / RFU, UHRF1BP1L / Fold change vs veh, UHRF1BP1L / RFU, BET1 / Fold change vs veh, BET1 / RFU, CNOT2 / Fold change vs veh, CNOT2 / RFU, ZNF268 / Fold change vs veh, ZNF268 / Fold change vs veh, ZNF507 / RFU, DGCR2 / Fold change vs veh, DGCR2 / RFU, WDSUB1 / Fold change vs veh, WDSUB1 / Fold change vs veh, HSP90B1 /// MIR3652 / RFU, ADSS / Fold change vs veh, ADSS / RFU, GK / Fold change vs veh, GK / RFU, ZNF148 / Fold change vs veh, ZNF148 / RFU, TAF9 / Fold change vs veh, TAF9 / RFU, SLC1A5 / Fold change vs veh, SLC1A5 / RFU, SLMO2 / Fold change vs veh, SLMO2 / RFU, ABCC4 / Fold change vs veh, ABCC4 / RFU, LOC101060439 /// RAP1B / Fold change vs veh, LOC101060439 /// RAP1B / RFU, RFX7 / Fold change vs veh, RFX7 / RFU, GTPBP10 / Fold change vs veh, GTPBP10 / RFU, CNEP1R1 / Fold change vs veh, CNEP1R1 / RFU, BIVM-ERCC5 /// ERCC5 / Fold change vs veh, BIVM-ERCC5 /// ERCC5 / RFU, ILF3 / Fold change vs veh, ILF3 / RFU 11762660_at / Fold change /veh 11762660_at / RFU VCAN (11757783_s_at) / Fold change /veh VCAN (11757783_s_at) / RFU DDX43 (11728927_at) / Fold change /veh DDX43 (11728927_at) / RFU KRT8 (11758188_x_at) / Fold change /veh KRT8 (11758188_x_at) / RFU NKD1 (11759106_at) / Fold change /veh NKD1 (11759106_at) / RFU SRD5A1 (11742802_a_at) / Fold change /veh SRD5A1 (11742802_a_at) / RFU TPSAB1 /// TPSB2 (11721975_s_at) / Fold change /veh TPSAB1 /// TPSB2 (11721975_s_at) / RFU GSTM3 (11746129_a_at) / Fold change /veh GSTM3 (11746129_a_at) / RFU IL23R (11737362_x_at) / Fold change /veh IL23R (11737362_x_at) / RFU TMEM51 (11727254_a_at) / Fold change /veh TMEM51 (11727254_a_at) / RFU PIWIL2 (11732686_x_at) / Fold change /veh PIWIL2 (11732686_x_at) / RFU ORM1 (11744905_x_at) / Fold change /veh ORM1 (11744905_x_at) / RFU CCDC152 (11743942_at) / Fold change /veh CCDC152 (11743942_at) / RFU ECM1 (11717891_a_at) / Fold change /veh ECM1 (11717891_a_at) / RFU IL23R (11748794_a_at) / Fold change /veh IL23R (11748794_a_at) / RFU TNFAIP8L3 (11732012_x_at) / Fold change /veh TNFAIP8L3 (11732012_x_at) / RFU MBOAT4 (11741988_at) / Fold change /veh MBOAT4 (11741988_at) / RFU 11764193_at / Fold change /veh 11764193_at / RFU TMEM53 (11763286_at) / Fold change /veh TMEM53 (11763286_at) / RFU MAGEB2 (11727129_at) / Fold change /veh MAGEB2 (11727129_at) / RFU TMEM200A (11744735_a_at) / Fold change /veh TMEM200A (11744735_a_at) / RFU CCDC152 (11751479_a_at) / Fold change /veh CCDC152 (11751479_a_at) / RFU FAM211A (11726209_a_at) / Fold change /veh FAM211A (11726209_a_at) / RFU RGS16 (11746705_a_at) / Fold change /veh RGS16 (11746705_a_at) / RFU VCAN (11755009_s_at) / Fold change /veh VCAN (11755009_s_at) / RFU RHOB (11743442_s_at) / Fold change /veh RHOB (11743442_s_at) / RFU RGS16 (11720943_a_at) / Fold change /veh RGS16 (11720943_a_at) / RFU RGS16 (11720944_at) / Fold change /veh RGS16 (11720944_at) / RFU, VPS4B / Fold change vs veh, VPS4B / RFU, CREB1 / Fold change vs veh, CREB1 / RFU, DNAJC13 / Fold change vs veh, DNAJC13 / RFU, GNAQ / Fold change vs veh, GNAQ / RFU, CDK5R1 / Fold change vs veh, CDK5R1 / RFU, ZRANB3 / Fold change vs veh, ZRANB3 / RFU, CUL4A / Fold change vs veh, CUL4A / RFU, CCNY / Fold change vs veh, CCNY / RFU, UFL1 / Fold change vs veh, UFL1 / RFU, COG3 / Fold change vs veh, COG3 / RFU, DIAPH2 / Fold change vs veh, DIAPH2 / RFU, SKA2 / Fold change vs veh, SKA2 / RFU, AFF3 / Fold change vs veh, AFF3 / RFU, LMF1 / Fold change vs veh, LMF1 / RFU, IPO11 / Fold change vs veh, IPO11 / RFU, DFFB / Fold change vs veh, DFFB / RFU, FOXP1 / Fold change vs veh, FOXP1 / RFU, CARD8 / Fold change vs veh, CARD8 / RFU, STRN3 / Fold change vs veh, STRN3 / RFU, ADK / Fold change vs veh, ADK / RFU, RASSF2 / Fold change vs veh, RASSF2 / RFU, WIPF1 / Fold change vs veh, WIPF1 / RFU, LARP1B / Fold change vs veh, LARP1B / RFU, RASA1 / Fold change vs veh, RASA1 / RFU, RB1 / Fold change vs veh, RB1 / RFU, PPFIA1 / Fold change vs veh, PPFIA1 / RFU, MAT2A / Fold change vs veh, MAT2A / RFU, CCT5 / Fold change vs veh, CCT5 / RFU, WDR92 / Fold change vs veh, WDR92 / RFU, CUX1 / Fold change vs veh, CUX1 / RFU, TTC7A / Fold change vs veh, TTC7A / RFU, TMEM135 / Fold change vs veh, TMEM135 / RFU, DEPTOR / Fold change vs veh, DEPTOR / RFU, CPM / Fold change vs veh, CPM / RFU, DNAJB6 / Fold change vs veh, DNAJB6 / RFU, CACNA2D3 / Fold change vs veh, CACNA2D3 / RFU, DTX4 / Fold change vs veh, DTX4 / RFU, TFCP2 / Fold change vs veh, TFCP2 / RFU, GMCL1 /// GMCL1P1 / Fold change vs veh, GMCL1 /// GMCL1P1 / RFU, AEBP2 / Fold change vs veh, AEBP2 / RFU, SNHG1 /// SNORD22 /// SNORD25 /// SNORD26 /// SNORD27 /// SNORD28 /// SNORD29 /// SNORD31 / Fold change vs veh, SNHG1 /// SNORD22 /// SNORD25 /// SNORD26 /// SNORD27 /// SNORD28 /// SNORD29 /// SNORD31 / Fold change (Aza/veh), C12orf56 (ProbeSet 11735607_a_at) / Fold change (ACY-1035/veh), C12orf56 (ProbeSet 11735607_a_at) / Fold change (Aza/veh), FGFR1OP (ProbeSet 11751329_s_at) / Fold change (ACY-1035/veh), FGFR1OP (ProbeSet 11751329_s_at) / Fold change (Aza/veh), VPS36 (ProbeSet 11739960_a_at) / Fold change (ACY-1035/veh), VPS36 (ProbeSet 11739960_a_at) / RFU SYPL1 (11715823_x_at) / Fold change /veh SYPL1 (11715823_x_at) / RFU IGFBP7 (11715501_s_at) / Fold change /veh IGFBP7 (11715501_s_at) / RFU REEP3 (11722064_at) / Fold change /veh REEP3 (11722064_at) / RFU IGLL1 (11728026_x_at) / Fold change /veh IGLL1 (11728026_x_at): dose or concentration left out as unconfirmed
Conditions: ProbeSet 11731461_x_at; LIST D

SMILES: Nc1ccc(-c2cccs2)cc1NC(=O)c1ccc2c(c1)cc(C1CC1)n2CCN1CCOCC1 [ACY-1035]
- RFU, CPM: 131.54 RFU
